Assay results taken from patent publication US20220370486A1, “COMBINATION TREATMENT OF SYSTEMIC FUNGAL INFECTIONS” (The Board of Trustees of the University of Illinois, priority 2019, published 2022).
In brackets after ≈: the same amount, converted by molar mass. Where two headings read alike, the source gives them in different places.

Experiments:
yeast cells = experiment: Antifungal activity after ergosterol pre-complexation of the sponge; assay type: cell-based; conditions: sponge pre-complexed with ergosterol
Text: Anderson, T. M. et al., Nat Chem Biol 2014, 10 (5), 400-6. […] Davis, S. A., et al., Nat Chem Biol 2015, 11 (7), 481-7. To test whether C2′epiAmB primarily kills cells via the same sterol sponge mechanism, the C2′epiAmB sponge was similarly pre-complexed with ergosterol. […] Thus, C2′epiAmB similarly kills yeast primarily via sterol binding, and, by extension, the new compounds targeted in this application are expected to have a similar barrier to fungal resistance that has been observed for the past 50+years with AmB.

Candida albicans SN250 = experiment: MIC against Candida albicans SN250; assay type: cell-based
[1] = UV-Vis and PCA based sterol sponge binding assay; conditions: apparent KD, sterol sponge aggregates in vitro
Text: However, an alternative method was developed for reproducible formation of homogenous AmB and C2′epiAmB sterol sponge aggregates in vitro. Using these preparations, a quantitative UV-Vis and Principle Component (PCA) based assay for determining the apparent Kis for the binding of AmB and C2′epiAmB to ergosterol and cholesterol (FIGS. 2A-2D) was developed.

F. solani SC 1047542 = experiment: Checkerboard broth microdilution (CLSI); assay type: cell-based; conditions: isolate 1047542; for MIC: Fusarium solani, single agent
Method: (§1) Isolates were tested against varying concentrations of amphotericin B and C2′epiAmB (range, 0.06 to 4 mg/L) and combined with fluconazole (range, 0.12 to 128 mg/L) or ketoconazole (range 0.008 to 8 mg/L) or voriconazole (range, 0.004 to 4 mg/L) using a checkerboard grid design following the Clinical and Laboratory Standards Institute (CLSI) broth microdilution method (M23Ed5).

A. fumigatus 1077391 = experiment: Checkerboard broth microdilution (CLSI); assay type: cell-based; conditions: isolate 1077391; for MIC: Aspergillus fumigatus, single agent
Method: as §1

C. albicans 967374 = experiment: Checkerboard broth microdilution (CLSI); assay type: cell-based; conditions: isolate 967374; for MIC: single agent
Method: as §1

[2] = tested on: A. fumigatus ATCC MYA-3626; experiment: Checkerboard broth microdilution (CLSI); assay type: cell-based; conditions: isolate ATCC MYA-3626; for MIC: single agent
Method: as §1

A. flavus SC 1085986 = experiment: Checkerboard broth microdilution (CLSI); assay type: cell-based; conditions: isolate 1085986; for MIC: Aspergillus flavus, single agent
Method: as §1

[3] = tested on: C. parapsilosis ATCC 22019; experiment: Checkerboard broth microdilution (CLSI); assay type: cell-based; conditions: isolate ATCC 22019
Method: as §1

C. krusei ATCC 6258 = experiment: Checkerboard broth microdilution (CLSI); assay type: cell-based; conditions: isolate ATCC 6258
Method: as §1

C. parapsilosis 1048737 = experiment: Checkerboard broth microdilution (CLSI); assay type: cell-based; conditions: isolate 1048737; for MIC: single agent
Method: as §1

C. glabrata 1046695 = experiment: Checkerboard broth microdilution (CLSI); assay type: cell-based; conditions: isolate 1046695; for MIC: Nakaseomyces glabratus, single agent
Method: as §1

C. auris 1081160 = experiment: Checkerboard broth microdilution (CLSI); assay type: cell-based; conditions: isolate 1081160; for MIC: Candidozyma auris, single agent
Method: as §1

F. oxysporum SC 1087597 = experiment: Checkerboard broth microdilution (CLSI); assay type: cell-based; conditions: isolate 1087597; for MIC: Fusarium oxysporum, single agent
Method: as §1

A. flavus ATCC 204304 = experiment: Checkerboard broth microdilution (CLSI); assay type: cell-based; conditions: isolate ATCC 204304; for MIC: Aspergillus flavus, ATCC204304, single agent
Method: as §1

C. tropicalis 1046709 = experiment: Checkerboard broth microdilution (CLSI); assay type: cell-based; conditions: isolate 1046709; for MIC: Candida tropicalis, single agent
Method: as §1

C. krusei 975691 = experiment: Checkerboard broth microdilution (CLSI); assay type: cell-based
Method: as §1

[4] = Candida albicans, read-out: MIC
[5] = Aspergillus fumigatus, read-out: MIC
[6] = Pichia kudriavzevii, ATCC6258, single agent, read-out: MIC
[7] = Lodderomyces parapsilosis, read-out: MIC
[8] = Pichia kudriavzevii, single agent, isolate 975691, read-out: MIC
[9] = Lodderomyces parapsilosis, ATCC22019, single agent, read-out: MIC

## C[C@@H]1[C@H](O)[C@@H](C)/C=C/C=C/C=C/C=C/C=C/C=C/C=C/[C@H](O[C@@H]2O[C@H](C)[C@@H](O)[C@H](N)[C@@H]2O)C[C@@H]2O[C@](O)(C[C@@H](O)C[C@@H](O)[C@H](O)CC[C@@H](O)C[C@@H](O)CC(=O)O[C@H]1C)C[C@H](O)[C@H]2C(=O)O [AmB, Amphotericin B]
Yeast cells
  change of potency upon ergosterol pre-complexation: same reduction in potency
Candida albicans SN250
  MIC: 0.15 µM (≈ 0.139 µg/mL)
[1]; read-out: KD,chol
  Kd: 840 nM
[1]; read-out: KD,erg
  Kd: 120 nM
F. solani SC 1047542
  MIC: 2 µg/mL
F. solani SC 1047542; with ketoconazole
  MIC when added 1 log2 unit lower of azoles' MIC: 0.06 mg/L
F. solani SC 1047542; with voriconazole
  MIC when added 1 log2 unit lower of azoles' MIC: 2 mg/L
A. fumigatus 1077391
  MIC: 1 µg/mL
A. fumigatus 1077391; with ketoconazole
  MIC when added 1 log2 unit lower of azoles' MIC: 0.06 mg/L
A. fumigatus 1077391; with voriconazole
  MIC when added 1 log2 unit lower of azoles' MIC: 1 mg/L
C. albicans 967374; [4]
  MIC: 0.5 µg/mL
C. albicans 967374
  MIC: 1 µg/mL
C. albicans 967374; with fluconazole
  MIC when added 1 log2 unit lower of azoles' MIC: 0.5 mg/L
C. albicans 967374; with ketoconazole
  MIC when added 1 log2 unit lower of azoles' MIC: 0.5 mg/L
C. albicans 967374; with voriconazole
  MIC when added 1 log2 unit lower of azoles' MIC: 0.5 mg/L
[2]; [5]
  MIC: 1 µg/mL
[2]; with ketoconazole
  MIC when added 1 log2 unit lower of azoles' MIC: 2 mg/L
[2]; with voriconazole
  MIC when added 1 log2 unit lower of azoles' MIC: 1 mg/L
A. flavus SC 1085986
  MIC: 2 µg/mL
A. flavus SC 1085986; with ketoconazole
  MIC when added 1 log2 unit lower of azoles' MIC: 1 mg/L
A. flavus SC 1085986; with voriconazole
  MIC when added 1 log2 unit lower of azoles' MIC: 2 mg/L
[3]; with fluconazole
  MIC when added 1 log2 unit lower of azoles' MIC: 0.25 mg/L
[3]; with ketoconazole
  MIC when added 1 log2 unit lower of azoles' MIC: 0.25 mg/L
[3]; with voriconazole
  MIC when added 1 log2 unit lower of azoles' MIC: 0.5 mg/L
C. krusei ATCC 6258; [6]
  MIC: 0.5 µg/mL
C. krusei ATCC 6258; single agent
  MIC: 1 µg/mL
C. krusei ATCC 6258; with fluconazole
  MIC when added 1 log2 unit lower of azoles' MIC: 0.5 mg/L
C. krusei ATCC 6258; with ketoconazole
  MIC when added 1 log2 unit lower of azoles' MIC: 0.5 mg/L
C. krusei ATCC 6258; with voriconazole
  MIC when added 1 log2 unit lower of azoles' MIC: 0.5 mg/L
C. parapsilosis 1048737; [7]
  MIC: 0.5 µg/mL
C. parapsilosis 1048737; with fluconazole
  MIC when added 1 log2 unit lower of azoles' MIC: 0.25 mg/L
C. parapsilosis 1048737; with ketoconazole
  MIC when added 1 log2 unit lower of azoles' MIC: 0.25 mg/L
C. parapsilosis 1048737; with voriconazole
  MIC when added 1 log2 unit lower of azoles' MIC: 0.25 mg/L
C. glabrata 1046695; read-out: MIC
  MIC: 0.5 µg/mL
C. glabrata 1046695; with fluconazole
  MIC when added 1 log2 unit lower of azoles' MIC: 0.5 mg/L
C. glabrata 1046695; with ketoconazole
  MIC when added 1 log2 unit lower of azoles' MIC: 0.06 mg/L
C. glabrata 1046695; with voriconazole
  MIC when added 1 log2 unit lower of azoles' MIC: 0.5 mg/L
C. auris 1081160; read-out: MIC
  MIC: 1 µg/mL
C. auris 1081160; with fluconazole
  MIC when added 1 log2 unit lower of azoles' MIC: 0.06 mg/L
C. auris 1081160; with ketoconazole
  MIC when added 1 log2 unit lower of azoles' MIC: 1 mg/L
C. auris 1081160; with voriconazole
  MIC when added 1 log2 unit lower of azoles' MIC: 1 mg/L
F. oxysporum SC 1087597
  MIC: 2 µg/mL
F. oxysporum SC 1087597; with ketoconazole
  MIC when added 1 log2 unit lower of azoles' MIC: 0.06 mg/L
F. oxysporum SC 1087597; with voriconazole
  MIC when added 1 log2 unit lower of azoles' MIC: 2 mg/L
A. flavus ATCC 204304
  MIC: 1 µg/mL
A. flavus ATCC 204304; with ketoconazole
  MIC when added 1 log2 unit lower of azoles' MIC: 1 mg/L
A. flavus ATCC 204304; with voriconazole
  MIC when added 1 log2 unit lower of azoles' MIC: 0.5 mg/L
C. tropicalis 1046709
  MIC: 0.5 µg/mL
C. tropicalis 1046709; with fluconazole
  MIC when added 1 log2 unit lower of azoles' MIC: 0.25 mg/L
C. tropicalis 1046709; with ketoconazole
  MIC when added 1 log2 unit lower of azoles' MIC: 0.5 mg/L
C. tropicalis 1046709; with voriconazole
  MIC when added 1 log2 unit lower of azoles' MIC: 0.5 mg/L
C. krusei 975691; [8]
  MIC: 1 µg/mL
C. krusei 975691; single agent, isolate 975691
  MIC: 0.5 µg/mL
C. krusei 975691; with fluconazole, isolate 975691
  MIC when added 1 log2 unit lower of azoles' MIC: 0.5 mg/L
C. krusei 975691; with ketoconazole, isolate 975691
  MIC when added 1 log2 unit lower of azoles' MIC: 0.5 mg/L
C. krusei 975691; with voriconazole, isolate 975691
  MIC when added 1 log2 unit lower of azoles' MIC: 0.5 mg/L

## OC(Cn1cncn1)(Cn1cncn1)c1ccc(F)cc1F [Fluconazole, fluconazole]
C. albicans 967374; [4]
  MIC: 16 µg/mL
[3]; [9]
  MIC: 1 µg/mL
[3]; single agent
  MIC: 2 µg/mL
C. krusei ATCC 6258; [6]
  MIC: 32 µg/mL
C. parapsilosis 1048737; [7]
  MIC: 0.5 µg/mL
C. parapsilosis 1048737
  MIC: 1 µg/mL
C. glabrata 1046695
  MIC: 128 µg/mL
C. auris 1081160
  MIC: > 128 µg/mL
C. tropicalis 1046709
  MIC: 4 µg/mL
C. krusei 975691; Pichia kudriavzevii
  MIC: 128 µg/mL

## CC(=O)N1CCN(c2ccc(OCC3COC(Cn4ccnc4)(c4ccc(Cl)cc4Cl)O3)cc2)CC1 (centres unmarked) [Ketoconazole, ketoconazole]
F. solani SC 1047542
  MIC: > 8 µg/mL
A. fumigatus 1077391
  MIC: > 8 µg/mL
C. albicans 967374; [4]
  MIC: 0.25 µg/mL
[2]; [5]
  MIC: 8 µg/mL
[2]
  MIC: >8 µg/mL
A. flavus SC 1085986
  MIC: 4 µg/mL
[3]; [9]
  MIC: 0.06 µg/mL
C. krusei ATCC 6258; [6]
  MIC: 0.25 µg/mL
C. parapsilosis 1048737; [7]
  MIC: 0.015 µg/mL
C. parapsilosis 1048737
  MIC: 0.03 µg/mL
C. glabrata 1046695; read-out: MIC
  MIC: 4 µg/mL
C. auris 1081160; read-out: MIC
  MIC: 0.5 µg/mL
F. oxysporum SC 1087597
  MIC: > 8 µg/mL
A. flavus ATCC 204304
  MIC: 2 µg/mL
C. tropicalis 1046709
  MIC: 0.12 µg/mL
C. krusei 975691; [8]
  MIC: 1 µg/mL
C. krusei 975691; single agent, isolate 975691
  MIC: 2 µg/mL

## C[C@@H](c1ncncc1F)[C@](O)(Cn1cncn1)c1ccc(F)cc1F [Voriconazole, voriconazole]
F. solani SC 1047542
  MIC: 4 µg/mL
A. fumigatus 1077391
  MIC: 2 µg/mL
C. albicans 967374; [4]
  MIC: 0.25 µg/mL
[2]; [5]
  MIC: 0.5 µg/mL
A. flavus SC 1085986
  MIC: 1 µg/mL
[3]; [9]
  MIC: 0.03 µg/mL
C. krusei ATCC 6258; [6]
  MIC: 0.25 µg/mL
C. parapsilosis 1048737; [7]
  MIC: 0.008 µg/mL
C. parapsilosis 1048737
  MIC: 0.015 µg/mL
C. glabrata 1046695; read-out: MIC
  MIC: 4 µg/mL
C. auris 1081160; read-out: MIC
  MIC: 1 µg/mL
F. oxysporum SC 1087597
  MIC: 4 µg/mL
A. flavus ATCC 204304
  MIC: 1 µg/mL
C. tropicalis 1046709
  MIC: 0.12 µg/mL
C. krusei 975691; [8]
  MIC: 4 µg/mL
